Results taken from patent US11060092B2, “Inhibitors of cytoplasmic histone deacetylase 4 complex for treating or preventing vascular or valve calcification” (TECHNION RESEARCH AND DEVELOPMENT FOUNDATION LTD., priority 2016, dated 2021).

Legend:
[1] = test system: GFP-HDAC4 in VSMCs; assay: GFP-HDAC4 cytoplasmic/nuclear localization in transfected VSMCs (CellProfiler scoring); format: cell-based, mouse; conditions: for cytoplasmic localization of HDAC4: VSMCs transfected with wild type GFP-HDAC4, vehicle 96.8%; for effect on HDAC4 location (nuclear accumulation / shuttling): VSMCs transfected with GFP-HDAC4
Experimental: (§1) Mouse aortic smooth muscle cells were purchased from ATCC (CRL-2797) and grown in DMEM supplemented with 10% FBS. 10 mmol/L beta-glycerophosphate (Sigma-Aldrich) and 0.2 mmol/L 2-Phospho-L-ascorbic acid (Sigma-Aldrich) were added to the growth media for 3-14 days to induce calcification (HPM). All cultured cells were maintained at 37° C. with 5% CO2.
Cell were transfected with pEGFP-HDAC4, pEGFP-HDAC4 3SA, pcDNA HDAC4-flag that were a gift from Tso-Pang Yao (Addgene plasmid #45636, #45637, #30485) [Cohen T. J. et al., The histone deacetylase HDAC4 connects neural activity to muscle transcriptional reprogramming. J Biol Chem 2007, 282, 33752-33759] or pEGFP-HDAC4 3-625 plasmid. Mouse ENIGMA (Pdlim7) or truncation mutants were cloned to pcDNA-3HA backbone plasmid. Transfections were performed using polyjet reagent (signaGen) according to manufacturer's instructions. Hdac4 siRNA (IDT), ENIGMA siRNA (GE Healthcare Life Sciences Dharmacon) LKB1 siRNA (IDT) and Sun2 siRNA (IDT) were transfected to the cells using Stemfect RNA Transfection Kit (Stemgent Inc.) according to manufacturer's instructions.
The pan-SIK, inhibitors: HG-9-91-01 (ApexBio #B1052), WH-4-023 (Sigma-Aldrich), MRT67307 (Sigma-Aldrich) and the pan-PKD and CamK inhibitors: CID-2011756 (Cayman #15317), KN-93 (Sigma-Aldrich K1285), were added to the HPM at final concentrations of 0.5, 1, 2, 5 and 10 μmol/L.
For localization and co-localization assays cell were transfected with pEGFP-HDAC4 plasmids, fixed with 4% formaldehyde in PBS, and blocked in 5% FBS in PBS. Staining for ENIGMA was done with overnight incubation of an antibody recognizing Pdlim7 (ProteinTech #10221-1-AP) in 2% FBS. Cy3-conjugated AffiniPure Donkey Anti-Rabbit IgG secondary antibody (Jackson ImmunoResearch) was used for detection. Nuclei were counterstained with DAPI 1 μg/ml. Cells were imaged using Zeiss Axio observer fluorescent microscope. Cytoplasmic and nuclear localization analysis was performed automatically on acquired images using CellProfiler cell image and analysis software [Carpenter A. E. et al., CellProfiler: image analysis software for identifying and quantifying cell phenotypes. Genome Biol 2006, 7, R100].

[2] = test system: VSMCs; assay: qRT-PCR of osteochondrogenic markers in VSMCs; format: cell-based, mouse; conditions: VSMCs grown 7 days in HPM, 1 μM vs DMSO
Experimental: as §1
RNA was extracted from cultured cell using the NucleoSpin RNA kit (MACH EREY-NAGEL). The RNeasy Fibrous Tissue mini and midi kits (Qiagen) were used to extract RNA from aortic rings and human tissue (respectively). All kits were used in accordance with manufacturer protocol. Reverse transcription was done using iScript reagent (Bio-Rad). Quantitative real-time PCR was performed with iTaq universal SYBR green supermix (Bio-Rad) using Bio-Rad CFX96 real time system. Previous study has shown that Actb was among the most stably expressed genes in differentiating osteoblasts [Stephens A. S, et al., Internal control genes for quantitative RT-PCR expression analysis in mouse osteoblasts, osteoclasts and macrophages. BMC Res Notes 2011, 4, 410], and therefore expression data were normalized to the expression of Actb. For each expression analysis we used at least two different experiments, at least four biological replicates, and two technical replicates for each biological replicates for each gene. We performed a standard curve for each primer pair. […]

[3] = test system: aortic calcification; assay: Vitamin D3 induced aortic calcification in ApoE-/- mice (Von Kossa, Alizarin red); format: in vivo, mouse; conditions: vitamin D3 overload, 5 mg/Kg/day IP then osmotic pump
Experimental: ApoE^−/− mice were purchased from The Jackson Laboratory. All animals were housed in a temperature-controlled environment with 12 hours light/dark cycles with food and water available ad libitum. Mice were aged 8 weeks when entering the study. Aortic calcification was induced via vitamin D3 overload as previously described [Idelevich A, Rais Y, Monsonego-Ornan E (2011) Bone Gla Protein Increases HIF-1-Dependent Glucose Metabolism and Induces Cartilage and Vascular Calcification. Arterioscler Thromb Vasc Biol 31: e55-e71]. 1α,25-Dihydroxyvitamin D3 (Sigma-Aldrich) was dissolved in 100% ethanol and diluted freshly. Mice received IP injections of 1α,25-Dihydroxyvitamin D3 for six consecutive days at a final concentration of 5 μg/Kg in 5% ethanol. SIK inhibition was achieved by daily administration of HG-9-91-01 (ApexBio #B1052) in DMSO at a final concentration of 5 mg/Kg/day. Littermate ApoE−/− mice were arbitrarily divided to receive treatment or control. In the first 4 days HG-9-91-01 was injected IP and on day 5 osmotic pumps (Alzet model 1002) were implanted. Animals were monitored daily and terminated for study at day 18. Specifically, mice were sacrificed in isoflurane and aortas were collected for histology. All mice procedures were performed in accordance with institutional guidelines. […]

[4] = test system: aortic rings; assay: Aortic rings assay in HPM (qRT-PCR of osteochondrogenic markers, Von Kossa stain); format: cell-based, mouse; conditions: aortic rings 14 days in HPM
Experimental: Aortas were either fresh frozen in OCT sliced into section with a cryostat or fixed in 4% formaldehyde, embedded in paraffin and cut into thin sections. Slides were stained to detect calcium depositions with Alizarin red or Von Kossa stains. Alizarin red: slides were incubated in 2% alizarin red (Sigma-Aldrich) for 5 minutes at room temperature, excess stain was washed in DDW. Von Kossa: slides were incubated for 20 minutes in 5% silver nitrate (Sigma-Aldrich), washed twice in DDW, immersed in 0.5% hydroquinone (Sigma-Aldrich) for 2 minutes followed by 2 minutes of 5% sodium thiosulfate (Alfa Aesar).
Aortic rings were prepared as described [Nature protocols, Use of the mouse aortic ring assay to study angiogenesis.—PubMed—NCBI, Last updated January 2012, Accessed on January 2012]. In brief, adult C57BL/6 mice were euthanized with isoflurane; thoracic aorta was dissected, cleaned under a microscope and cut into rings. […]
RNA was extracted from cultured cell using the NucleoSpin RNA kit (MACH EREY-NAGEL). […] Quantitative real-time PCR was performed with iTaq universal SYBR green supermix (Bio-Rad) using Bio-Rad CFX96 real time system. Previous study has shown that Actb was among the most stably expressed genes in differentiating osteoblasts [Stephens A. S, et al., Internal control genes for quantitative RT-PCR expression analysis in mouse osteoblasts, osteoclasts and macrophages. […]

[5] = test system: VSMCs; assay: O-cresolphthalein calcium colorimetric assay of VSMCs (matrix calcification); format: cell-based, mouse; conditions: VSMCs in HPM, 14 days, normalized to protein concentration
Experimental: as §1
After 14 days of growth cells were washed in PBS and incubated overnight in 0.6N HCl. HCl was collected and calcium content was measured using o-cresolphthalein Calcium colorimetric assay kit (Sigma-Aldrich) according to manufacture instructions. Calcium concentration was then normalized to cells protein concentration.

[6] = test system: hepatocytes; conditions: cited from earlier work
[7] = test system: bone mass; conditions: once daily treatment; cited from earlier work

SMILES | cytoplasmic localization of HDAC4 ([1]; 10 μmol/L) [%] | effect on HDAC4 location (nuclear accumulation / shuttling) [1] | other results
O=C(Nc1ccc(CN2CCOCC2)cc1)c1ccc(-c2cccc(Cl)c2)o1 [CID 2011756] | 99.6 | did not significantly affect the location of HDAC4 | –
COc1ccc(N(C(=O)Nc2c(C)cccc2C)c2cc(Nc3ccc(N4CCN(C)CC4)cc3)ncn2)c(OC)c1 [HG-9-91-01] | 14.4 | induced nuclear import of HDAC4 in a dose dependent manner | upregulation of the osteochondrogenic genes [2]: blunted the upregulation of the osteochondrogenic genes; cytoplasmic localization of HDAC4 ([1]; 0.5 μmol/L): 97.4%; cytoplasmic localization of HDAC4 ([1]; 2 μmol/L): 75.7%; development of aortic medial calcifications [3]: markedly blunted the development of these calcifications; matrix calcification (Von Kossa stain) [4]: blunted; upregulation of the osteochondrogenic genes ([4]; 1 μM vs DMSO): blunted; matrix calcification (matrix calcium) [5]: blunted; gluconeogenic gene expression and glucose production [6]: enhanced gluconeogenic gene expression and glucose production in hepatocytes
COc1ccc(S(=O)(=O)N(CCO)c2ccccc2CN(C)C/C=C/c2ccc(Cl)cc2)cc1 [KN-93] | 91.6 | did not significantly affect the location of HDAC4 | –
CCC(=C/[C@H](C)C/C=C/C(C)=C/[C@@H](C)C(=O)[C@@H](C)[C@H](O)[C@@H](C)C/C(C)=C/C(=O)O)/C=C/[C@@H]1OC(=O)C=C[C@@H]1C [Leptomycin B, leptomycin B] | – | induced nuclear accumulation of GFP-HDAC4 | –
O=C(NCCCNc1nc(Nc2cccc(CN3CCOCC3)c2)ncc1C1CC1)C1CCC1 [MRT67307] | – | induced the shuttling of HDAC4 to the nucleus | –
COc1ccc(N(C(=O)Oc2c(C)cccc2C)c2ccnc(Nc3ccc(N4CCN(C)CC4)cc3)n2)c(OC)c1 [WH-4-023] | – | induced the shuttling of HDAC4 to the nucleus | –
COc1ccc(N2C(=O)N(c3c(C)cccc3Cl)Cc3cnc(Nc4ccc(C5CCN(C)CC5)cc4OC)nc32)nc1 [YKL-05-099] | – | – | skeletal effects / bone mass [7]: mimic skeletal effects of PTH and increase bone mass
